The NIST ThermoML archive (doi:10.1021/acs.jced.8b00509)

Test: mn = molality of the nth substance listed, in mol/kg
Conditions: 100 kPa, Liquid; for viscosity: Capillary tube (Ostwald / Ubbelohde) method; for speed of sound: Frequency=3 MHz, Single path-length method; for mass density: Vibrating tube method

C[C@H](CCC(=O)[O-])[C@H]1CC[C@H]2[C@@H]3CC[C@@H]4C[C@H](O)CC[C@]4(C)[C@H]3C[C@H](O)[C@]12C.[Na+] [sodium deoxycholate] + O
Conditions	mass density, 293.15 K [kg/m3]	mass density, 298.15 K [kg/m3]	speed of sound, 293.15 K [m/s]	speed of sound, 298.15 K [m/s]	speed of sound, 303.15 K [m/s]	viscosity, 293.15 K [mPa·s]	viscosity, 298.15 K [mPa·s]	viscosity, 303.15 K [mPa·s]
m1 = 0.001	998.38	997.22	1483.7	1497.4	1509.6	1.003	0.892	0.799
m1 = 0.002	998.49	997.31	1484.1	1497.6	1509.8	1.004	0.893	0.8
m1 = 0.003	998.58	997.39	1484.5	1497.9	1510	1.006	0.894	0.801
m1 = 0.004	998.67	997.48	1484.7	1498.1	1510.2	1.009	0.897	0.804
m1 = 0.005	998.75	997.56	1484.9	1498.3	1510.4	1.014	0.902	0.809
m1 = 0.006	998.83	997.65	1485.2	1498.6	1510.7	1.027	0.915	0.822
m1 = 0.007	998.92	997.73	1485.4	1498.8	–	1.036	0.924	0.83
m1 = 0.008	999.01	997.83	1485.6	1499	–	1.04	0.928	0.834
m1 = 0.009	999.11	998.01	1485.8	1499.3	–	1.045	0.932	0.839
m1 = 0.01	999.21	998.11	1486	1499.5	–	1.047	0.934	0.841
m1 = 0.011	999.32	998.2	1486.2	1499.7	–	1.05	0.937	0.843
m1 = 0.012	999.4	998.2	1486.4	1499.9	–	1.051	0.938	0.846
